Columns and labels:
human PPAR α = target: T1, human PPAR α (Homo sapiens, UniProt Q07869); assay: Luciferase assay using human PPAR α (PPAR α agonistic activity); assay type: cell-based; conditions: compound 10 μM; luciferase activity of carbacyclin (10 μM) defined as 1.0; CV-1 cells with Gal4-human PPAR α ligand binding domain chimera, 42 hours
T1 construct: expressed in transfected cells; host or cells: CV-1 cells
T1 sequence (Q07869 167-468): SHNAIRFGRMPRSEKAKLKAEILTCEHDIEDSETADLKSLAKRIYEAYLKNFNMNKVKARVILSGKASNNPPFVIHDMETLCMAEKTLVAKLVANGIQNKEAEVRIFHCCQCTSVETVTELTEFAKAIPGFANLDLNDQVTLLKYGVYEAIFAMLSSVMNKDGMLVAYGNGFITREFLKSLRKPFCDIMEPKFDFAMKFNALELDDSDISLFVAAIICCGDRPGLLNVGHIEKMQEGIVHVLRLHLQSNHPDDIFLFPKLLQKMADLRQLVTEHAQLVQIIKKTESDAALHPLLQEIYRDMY

human PPAR γ = target: T2, human PPAR γ (Homo sapiens, UniProt P37231); assay: Luciferase assay using human PPAR γ (PPAR γ agonistic activity); assay type: cell-based; conditions: compound 10 μM; luciferase activity of troglitazone (10 μM) defined as 1.0; CV-1 cells with Gal4-human PPAR γ ligand binding domain chimera, 42 hours
T2 construct: expressed in transfected cells; host or cells: CV-1 cells
T2 sequence (P37231 204-505): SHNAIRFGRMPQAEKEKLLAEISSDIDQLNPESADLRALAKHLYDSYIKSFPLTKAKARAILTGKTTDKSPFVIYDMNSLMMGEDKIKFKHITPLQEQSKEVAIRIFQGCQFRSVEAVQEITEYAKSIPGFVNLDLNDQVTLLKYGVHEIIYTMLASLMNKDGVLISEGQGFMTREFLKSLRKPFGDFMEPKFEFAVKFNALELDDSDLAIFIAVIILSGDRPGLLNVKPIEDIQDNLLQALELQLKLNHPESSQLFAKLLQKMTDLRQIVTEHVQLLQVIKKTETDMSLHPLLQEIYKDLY

Cc1ccc(-c2nc(CCOc3cccc4c3CCCN4CCC(=O)O)c(C)o2)cc1 [Example 2]
Relative Activity to a positive control compound (carbacyclin = 1) (human PPAR α): 0.5
Relative Activity to a positive control compound (troglitazone = 1) (human PPAR γ): 6.7

Source: patent US6924295B2, “Tetrahydroquinoline derivative compound and drug containing the compound as active ingredient” (Ono Pharmaceutical Co., Ltd., priority 2001, dated 2005)
